# Source: patent publication US20230150974A1 (Foghorn Therapeutics Inc., priority 2020, published 2023)
# Columns and labels:
# HiBiT-BRM = target: T1, HiBiT-BRM (Homo sapiens, UniProt P51531); assay: HiBiT-BRM cell-based degradation assay (Nano-Glo HiBiT Lytic Detection); conditions: HeLa cells expressing HiBiT-BRM, 24 h; for DC50: read-out: BRM HiBit Degradation IC50
# T1 construct: expressed in transfected cells
# In short: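 HeLa cells stably expressing HiBiT-tagged BRM were treated for 24 h, then lysed with LgBiT-containing Nano-Glo reagent and luminescence read. % degradation scaled between DMSO (high control) and 2 μM reference BRM/BRG1 degrader (low control).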
# HiBit-BRG1 = target: T2, HiBit-BRG1 (Homo sapiens, UniProt P51532); assay: HiBit-BRG1 cell-based degradation assay (Nano-Glo HiBiT Lytic Detection); conditions: HeLa cells expressing HiBit-BRG1 and LgBit, 24 h; for DC50: read-out: BRG1 HiBit Degradation IC50; for Dmax: read-out: BRG1 HiBit Degradation Maximum (%)
# T2 construct: expressed in transfected cells
# In short: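 Seed 5000 HeLa HiBit-BRG1/LgBit cells per well; treat 24 h; equilibrate 15 min at room temperature; add Nano-Glo HiBiT lytic reagent, shake 10 min, read luminescence. Percent degradation is scaled between DMSO and 2 μM reference degrader wells.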
# T2 sequence (P51532 whole entry): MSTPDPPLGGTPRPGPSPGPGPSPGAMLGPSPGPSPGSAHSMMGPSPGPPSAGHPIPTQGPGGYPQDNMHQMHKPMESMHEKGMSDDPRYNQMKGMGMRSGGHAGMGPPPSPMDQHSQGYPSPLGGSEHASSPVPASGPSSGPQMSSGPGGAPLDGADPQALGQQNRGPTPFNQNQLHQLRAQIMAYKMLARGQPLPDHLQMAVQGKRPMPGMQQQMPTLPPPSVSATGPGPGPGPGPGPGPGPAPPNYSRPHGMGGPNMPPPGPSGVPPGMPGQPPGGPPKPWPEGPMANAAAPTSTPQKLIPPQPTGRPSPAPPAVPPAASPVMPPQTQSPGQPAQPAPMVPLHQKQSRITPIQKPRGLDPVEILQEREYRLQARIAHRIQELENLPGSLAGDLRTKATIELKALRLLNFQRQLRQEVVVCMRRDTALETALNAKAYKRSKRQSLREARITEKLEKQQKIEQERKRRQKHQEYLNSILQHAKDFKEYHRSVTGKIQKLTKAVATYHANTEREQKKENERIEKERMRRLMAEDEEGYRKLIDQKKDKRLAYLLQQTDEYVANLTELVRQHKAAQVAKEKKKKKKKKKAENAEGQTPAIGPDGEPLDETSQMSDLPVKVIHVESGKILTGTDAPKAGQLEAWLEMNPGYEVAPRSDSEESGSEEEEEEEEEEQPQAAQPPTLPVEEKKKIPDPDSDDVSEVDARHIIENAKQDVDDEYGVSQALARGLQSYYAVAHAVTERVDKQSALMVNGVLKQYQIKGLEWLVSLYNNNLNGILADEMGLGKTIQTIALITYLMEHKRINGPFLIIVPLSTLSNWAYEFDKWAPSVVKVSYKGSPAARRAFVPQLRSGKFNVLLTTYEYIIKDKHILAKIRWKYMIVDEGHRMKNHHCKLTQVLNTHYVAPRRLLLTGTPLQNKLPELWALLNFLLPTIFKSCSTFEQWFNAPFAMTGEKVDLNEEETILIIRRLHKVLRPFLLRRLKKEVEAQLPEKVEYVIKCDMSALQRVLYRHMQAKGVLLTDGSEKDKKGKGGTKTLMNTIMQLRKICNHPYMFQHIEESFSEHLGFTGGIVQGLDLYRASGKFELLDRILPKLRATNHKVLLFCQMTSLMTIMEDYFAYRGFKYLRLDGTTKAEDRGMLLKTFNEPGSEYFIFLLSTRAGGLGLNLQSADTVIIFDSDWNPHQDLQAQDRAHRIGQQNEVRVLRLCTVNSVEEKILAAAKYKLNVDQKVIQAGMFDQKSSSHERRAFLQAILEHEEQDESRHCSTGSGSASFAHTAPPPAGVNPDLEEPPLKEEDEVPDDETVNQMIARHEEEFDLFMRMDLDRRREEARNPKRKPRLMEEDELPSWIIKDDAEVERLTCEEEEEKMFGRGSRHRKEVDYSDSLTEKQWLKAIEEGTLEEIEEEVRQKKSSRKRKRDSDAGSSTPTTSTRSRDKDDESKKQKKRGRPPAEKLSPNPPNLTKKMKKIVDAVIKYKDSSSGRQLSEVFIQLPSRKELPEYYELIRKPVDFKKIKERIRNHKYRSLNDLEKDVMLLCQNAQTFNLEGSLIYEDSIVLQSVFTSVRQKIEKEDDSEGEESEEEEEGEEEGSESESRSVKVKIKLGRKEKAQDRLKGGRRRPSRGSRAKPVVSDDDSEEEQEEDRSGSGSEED
# T1 sequence (P51531 whole entry): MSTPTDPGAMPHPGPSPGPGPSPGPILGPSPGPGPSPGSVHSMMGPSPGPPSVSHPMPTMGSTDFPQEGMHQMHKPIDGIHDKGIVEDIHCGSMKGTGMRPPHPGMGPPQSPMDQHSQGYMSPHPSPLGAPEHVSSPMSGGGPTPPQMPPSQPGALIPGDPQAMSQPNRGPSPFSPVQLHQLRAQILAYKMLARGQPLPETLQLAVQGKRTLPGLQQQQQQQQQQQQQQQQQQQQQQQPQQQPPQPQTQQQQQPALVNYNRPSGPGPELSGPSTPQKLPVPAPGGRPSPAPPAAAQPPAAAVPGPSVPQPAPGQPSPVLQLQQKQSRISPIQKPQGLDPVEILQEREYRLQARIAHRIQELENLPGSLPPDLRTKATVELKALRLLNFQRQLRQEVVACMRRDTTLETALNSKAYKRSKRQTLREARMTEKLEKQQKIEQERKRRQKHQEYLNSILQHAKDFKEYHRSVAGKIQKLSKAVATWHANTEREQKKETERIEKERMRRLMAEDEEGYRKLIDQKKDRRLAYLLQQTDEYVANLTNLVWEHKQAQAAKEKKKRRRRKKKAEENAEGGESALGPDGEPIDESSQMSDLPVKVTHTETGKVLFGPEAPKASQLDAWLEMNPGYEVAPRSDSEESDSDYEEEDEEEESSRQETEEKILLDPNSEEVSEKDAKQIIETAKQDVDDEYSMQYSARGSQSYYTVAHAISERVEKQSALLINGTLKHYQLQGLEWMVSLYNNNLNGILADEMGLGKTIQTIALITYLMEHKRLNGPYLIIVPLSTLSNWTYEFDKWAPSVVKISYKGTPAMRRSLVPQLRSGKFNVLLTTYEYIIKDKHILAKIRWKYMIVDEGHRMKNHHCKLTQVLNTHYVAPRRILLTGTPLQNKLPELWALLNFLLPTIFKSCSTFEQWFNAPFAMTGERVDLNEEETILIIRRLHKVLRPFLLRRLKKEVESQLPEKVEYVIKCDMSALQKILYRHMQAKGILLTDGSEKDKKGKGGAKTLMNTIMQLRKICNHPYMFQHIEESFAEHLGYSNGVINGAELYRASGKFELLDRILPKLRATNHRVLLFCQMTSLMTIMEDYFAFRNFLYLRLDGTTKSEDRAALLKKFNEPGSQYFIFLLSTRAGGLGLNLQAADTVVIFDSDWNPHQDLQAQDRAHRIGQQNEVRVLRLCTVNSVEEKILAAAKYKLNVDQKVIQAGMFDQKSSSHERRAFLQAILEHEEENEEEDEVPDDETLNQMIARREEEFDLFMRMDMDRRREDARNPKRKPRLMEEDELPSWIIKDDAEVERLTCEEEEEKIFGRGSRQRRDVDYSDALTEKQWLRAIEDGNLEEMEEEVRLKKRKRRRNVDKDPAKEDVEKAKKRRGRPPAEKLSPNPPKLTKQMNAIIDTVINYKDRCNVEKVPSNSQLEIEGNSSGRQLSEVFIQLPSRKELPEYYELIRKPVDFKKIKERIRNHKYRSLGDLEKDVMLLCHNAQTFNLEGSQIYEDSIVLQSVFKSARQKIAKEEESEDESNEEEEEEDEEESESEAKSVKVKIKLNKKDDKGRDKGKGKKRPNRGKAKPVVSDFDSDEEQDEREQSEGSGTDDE
DC50 (HiBiT-BRM),DC50 (HiBit-BRG1),Dmax (HiBit-BRG1),SMILES,BRM HiBit Degradation Maximum (%) (HiBiT-BRM)
> 1000 nM,> 1000 nM,< 50%,"Nc1nnc(-c2ccccc2O)cc1OCCc1ccc(CNC(=O)CCOCCOCCNc2cccc3c2C(=O)N(C2CCC(=O)NC2=O)C3=O)cc1 (stereo not shown) [Compound 74, N-(4-(2-((3-amino-6-(2-hydroxyphenyl)pyridazin-4-yl)oxy)ethyl)benzyl)-3-(2-(2-((2-(2,6-dioxopiperidin-3-yl)-1,3-dioxoisoindolin-4-yl)amino)ethoxy)ethoxy)propanamide]",C (“C” indicates maximum degradation <50%)
> 1000 nM,> 1000 nM,< 50%,"Nc1nnc(-c2ccccc2O)cc1N1CCN(CC(=O)NCCCCS(=O)(=O)CCCNc2cccc3c2C(=O)N(C2CCC(=O)NC2=O)C3=O)CC1 (stereo not shown) [Compound 80, 2-[4-[3-amino-6-(2-hydroxyphenyl)pyridazin-4-yl]piperazin-1-yl]-N-[4-(3-[[2-(2,6-dioxopiperidin-3-yl)-1,3-dioxoisoindol-4-yl]amino]propanesulfonyl)butyl]acetamide]",C (“C” indicates maximum degradation <50%)
> 1000 nM,> 1000 nM,< 50%,"Nc1nnc(-c2ccccc2O)cc1N1CCN(CC(=O)NC2CCN(CCOc3ccc4c(c3)C(=O)N(C3CCC(=O)NC3=O)C4=O)CC2)CC1 (stereo not shown) [Compound 82, 2-[4-[3-amino-6-(2-hydroxyphenyl)pyridazin-4-yl]piperazin-1-yl]-N-[1-(2-[[2-(2,6-dioxopiperidin-3-yl)-1,3-dioxoisoindol-5-yl]oxy]ethyl)piperidin-4-yl]acetamide]",C (“C” indicates maximum degradation <50%)
> 100 nM,> 1000 nM,< 50%,"Nc1nnc(-c2ccccc2O)cc1N1CCN(CC(=O)NCCCCCCCCNc2ccc3c(c2)C(=O)N(C2CCC(=O)NC2=O)C3=O)CC1 (stereo not shown) [Compound 83, 2-[4-[3-amino-6-(2-hydroxyphenyl)pyridazin-4-yl]piperazin-1-yl]-N-(8-[[2-(2,6-dioxopiperidin-3-yl)-1,3-dioxoisoindol-5-yl]amino]octyl)acetamide]",B (“B” indicates maximum degradation ≥50%)
> 1000 nM,> 1000 nM,< 50%,"Cc1ncsc1-c1ccc(CNC(=O)[C@@H]2C[C@@H](O)CN2C(=O)[C@@H](NC(=O)COCCOCCOCCNC(=O)CN2CCN(c3cc(-c4ccccc4O)nnc3N)CC2)C(C)(C)C)cc1 [Compound 86, (2S,4R)-1-[(2S)-2-[2-(2-[2-[2-(2-[4-[3-amino-6-(2-hydroxyphenyl)pyridazin-4-yl]piperazin-1-yl]acetamido)ethoxy]ethoxy]ethoxy)acetamido]-3,3-dimethylbutanoyl]-4-hydroxy-N-[[4-(4-methyl-1,3-thiazol-5-yl)phenyl]methyl]pyrrolidine-2-carboxamide]",C (“C” indicates maximum degradation <50%)

# Continued, molecule first:
SMILES,DC50 (HiBiT-BRM),DC50 (HiBit-BRG1),Dmax (HiBit-BRG1),BRM HiBit Degradation Maximum (%) (HiBiT-BRM)
"Nc1nnc(-c2ccccc2O)cc1OCCc1ccc(CNC(=O)CCCCCCCCNc2ccc3c(c2)C(=O)N(C2CCC(=O)NC2=O)C3=O)cc1 (stereo not shown) [Compound 73, N-(4-(2-((3-amino-6-(2-hydroxyphenyl)pyridazin-4-yl)oxy)ethyl)benzyl)-9-((2-(2,6-dioxopiperidin-3-yl)-1,3-dioxoisoindolin-5-yl)amino)nonanamide]",> 1000 nM,> 1000 nM,< 50%,C (“C” indicates maximum degradation <50%)
"Nc1nnc(-c2ccccc2O)cc1OCCc1ccc(CNC(=O)CCCCCCCCCNc2ccc3c(c2)C(=O)N(C2CCC(=O)NC2=O)C3=O)cc1 (stereo not shown) [Compound 75, N-(4-(2-((3-amino-6-(2-hydroxyphenyl)pyridazin-4-yl)oxy)ethyl)benzyl)-10-((2-(2,6-dioxopiperidin-3-yl)-1,3-dioxoisoindolin-5-yl)amino)decanamide]",> 1000 nM,> 1000 nM,–,C (“C” indicates maximum degradation <50%)
"Nc1nnc(-c2ccccc2O)cc1N1CCN(CC(=O)N2CC(COc3cccc4c3C(=O)N(C3CCC(=O)NC3=O)C4=O)C2)CC1 (stereo not shown) [Compound 76, 4-[[1-(2-[4-[3-amino-6-(2-hydroxyphenyl)pyridazin-4-yl]piperazin-1-yl]acetyl)azetidin-3-yl]methoxy]-2-(2,6-dioxopiperidin-3-yl)isoindole-1,3-dione]",> 1000 nM,> 1000 nM,< 50%,C (“C” indicates maximum degradation <50%)
"Nc1nnc(-c2ccccc2O)cc1N1CCN(C(=O)C2CC2CNC(=O)COc2cccc3c2C(=O)N(C2CCC(=O)NC2=O)C3=O)CC1 (stereo not shown) [Compound 77, N-[(2-[4-[3-amino-6-(2-hydroxyphenyl)pyridazin-4-yl]piperazine-1-carbonyl]cyclopropyl)methyl]-2-[[2-(2,6-dioxopiperidin-3-yl)-1,3-dioxoisoindol-4-yl]oxy]acetamide]",> 1000 nM,> 1000 nM,–,C (“C” indicates maximum degradation <50%)
"Nc1nnc(-c2ccccc2O)cc1N1CCN(C(=O)C2CC2CNC(=O)COc2ccc3c(c2)C(=O)N(C2CCC(=O)NC2=O)C3=O)CC1 (stereo not shown) [Compound 78, N-[(2-[4-[3-amino-6-(2-hydroxyphenyl)pyridazin-4-yl]piperazine-1-carbonyl]cyclopropyl)methyl]-2-[[2-(2,6-dioxopiperidin-3-yl)-1,3-dioxoisoindol-5-yl]oxy]acetamide]",> 1000 nM,> 1000 nM,–,C (“C” indicates maximum degradation <50%)
"Nc1nnc(-c2ccccc2O)cc1N1CCN(CC(=O)NCCS(=O)(=O)CCNc2cccc3c2C(=O)N(C2CCC(=O)NC2=O)C3=O)CC1 (stereo not shown) [Compound 79, 2-[4-[3-amino-6-(2-hydroxyphenyl)pyridazin-4-yl]piperazin-1-yl]-N-[2-(2-[[2-(2,6-dioxopiperidin-3-yl)-1,3-dioxoisoindol-4-yl]amino]ethanesulfonyl)ethyl]acetamide]",> 1000 nM,> 1000 nM,< 50%,C (“C” indicates maximum degradation <50%)
"Nc1nnc(-c2ccccc2O)cc1N1CCN(CC(=O)N2CC(COc3ccc4c(c3)C(=O)N(C3CCC(=O)NC3=O)C4=O)C2)CC1 (stereo not shown) [Compound 81, 5-((1-(2-(4-(3-amino-6-(2-hydroxyphenyl)pyridazin-4-yl)piperazin-1-yl)acetyl)azetidin-3-yl)methoxy)-2-(2,6-dioxopiperidin-3-yl)isoindoline-1,3-dione]",> 1000 nM,> 1000 nM,< 50%,C (“C” indicates maximum degradation <50%)
"Nc1nnc(-c2ccccc2O)cc1N1CCN(CCNC(=O)CCCOc2cccc3c2C(=O)N(C2CCC(=O)NC2=O)C3=O)CC1 (stereo not shown) [Compound 84, N-(2-(4-(3-amino-6-(2-hydroxyphenyl)pyridazin-4-yl)piperazin-1-yl)ethyl)-4-((2-(2,6-dioxopiperidin-3-yl)-1,3-dioxoisoindolin-4-yl)oxy)butanamide]",> 1000 nM,> 1000 nM,< 50%,C (“C” indicates maximum degradation <50%)
